Test results: patent US10907168B2, “Jasmonic acid pathway activator” (MEDICAGO INC., priority 2015, dated 2021)

Experiments:
[1] = system: 33-kDa pathogen-inducible PR-2 protein; assay: 33-kDa PR-2 protein accumulation, immunodetection and densitometry; type: in vivo, Nicotiana benthamiana; conditions: non-infiltrated leaves; sprayed at 0.5 or 1 mM; ANOVA P>0.05
Description: FIGS. 2a-2c show the effect of MeJA treatment on PR-2 protein accumulation, agrobacteria numbers and transcript numbers of the two A. tumefaciens virulence proteins VirB1 and VirE1 in N. benthamiana leaves. […] Immunoblot signals were quantified using the Phoretix 2-D Expression software v. 2005 (NonLinear USA) after scanning nitrocellulose membranes with a Microtek ScanMaker II digitalizer (Microtek Laboratory). Data are the mean of three leaf replicates±SE. An arbitrary value of 1.0 was assigned to PR-2 level in control healthy leaves. […] Data are expressed as log numbers of colony-forming units (CFU) on agar plates and each point is the mean of five independent (leaf replicate) values±SE. […]
Whole leaf proteins were extracted from three 1-cm^2 leaf discs in 400 μl of ice-cold 50 mM Tris-HCl, pH 7.5, containing 150 mM NaCl, by disrupting the leaf samples with tungsten carbide beads (Qiagen, Mississauga ON, Canada) in a Mini-Beadbeater apparatus (BioSpec, Bartlesville Okla., USA). […] RuBisCO small subunit was detected using polyclonal IgG raised in rabbit against a synthetic small subunit peptide (Agrisera, Vännäs, Sweden) and alkaline phosphatase-conjugated goat anti-rabbit IgG as secondary antibodies (Sigma-Aldrich). […] C5-1 light and heavy chains were detected with alkaline phosphatase-conjugated goat anti-mouse IgG antibodies (Sigma-Aldrich).

[2] = system: N. benthamiana leaves; assay: Leaf protein profile, Coomassie blue-stained SDS-PAGE and MS/MS identification; type: in vivo, Nicotiana benthamiana; conditions: uninfiltrated leaves; ~30-kDa, ~25-kDa and ~6-kDa mass ranges; seven days post-treatment
Experimental: Forty-two day-old N. benthamiana plants grown in greenhouse were used for the experiments. Each plant was sprayed evenly with 50 ml of 0.5 mM, 1 mM or 2 mM MeJA in water containing 0.1% (v/v) Triton X-100 (Sigma-Aldrich, Mississauga ON, Canada), or with 50 ml of 1 mM arachidonic acid (Girard et al., 2007) in the same solvent, and transferred for seven days in a Conviron growth chamber (Conviron, Winnipeg MB, Canada). Plants sprayed with 50 ml of 0.1% (v/v) Triton X-100 in water were used in parallel as negative controls to avoid confounding effects due to experimental conditions. […]
Whole leaf proteins were extracted from three 1-cm^2 leaf discs in 400 μl of ice-cold 50 mM Tris-HCl, pH 7.5, containing 150 mM NaCl, by disrupting the leaf samples with tungsten carbide beads (Qiagen, Mississauga ON, Canada) in a Mini-Beadbeater apparatus (BioSpec, Bartlesville Okla., USA). […] RuBisCO small subunit was detected using polyclonal IgG raised in rabbit against a synthetic small subunit peptide (Agrisera, Vännäs, Sweden) and alkaline phosphatase-conjugated goat anti-rabbit IgG as secondary antibodies (Sigma-Aldrich). RuBisCO large subunit was detected using polyclonal IgG raised in hen against a synthetic large subunit peptide (Agrisera) and alkaline phosphatase-conjugated goat anti-chicken IgG as secondary antibodies (Sigma-Aldrich). […]

## CC/C=C\C[C@H]1C(=O)CC[C@@H]1CC(=O)OC [MeJA, methyl jasmonate]
[1]
  expression of 33-kDa PR-2 protein: no significant effect
[2]
  up-regulation of proteins on Coomassie blue-stained gels: up-regulation of several proteins
